{"source": "PubChem BioAssay AID608", "about": "(Sanford-Burnham Center for Chemical Genomics, 2007)", "note": "Several values for one entry are separate records, joined by “and”; a condition that tells them apart may be missing. Equal entries are not always repeated. Activity calls are given as the source filed them. The rule behind the calls is not given here.", "data": [{"molecular_target": "Peptidyl-prolyl cis-trans isomerase FKBP1A (Homo sapiens) (UniProt P62942)", "sequence (P62942 whole entry, looked up)": "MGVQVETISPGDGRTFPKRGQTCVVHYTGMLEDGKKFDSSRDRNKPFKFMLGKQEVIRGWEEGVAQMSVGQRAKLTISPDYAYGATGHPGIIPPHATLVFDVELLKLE", "assay": "FKBP12 binders, biophysical, NMR detection (AID 608)", "conditions": "NMR binding, purified FKBP12", "values": [{"smiles": "Cc1cc(NC(=O)c2cnn3cccnc23)no1", "Kd": "> 4 mM (inactive)"}, {"smiles": "COc1ccc(O)c(-c2cn[nH]c2-c2cccs2)c1", "Kd": "> 4 mM (inactive)"}, {"smiles": "Cc1cn2c(-c3cccnc3)nnc2s1", "Kd": "> 4 mM (inactive)"}, {"smiles": "O=C(NC(=S)NC1CCSC1=O)c1ccco1", "note": "(stereo not drawn)", "Kd": "> 4 mM (inactive)"}, {"smiles": "Cc1cc(O)cc(=O)o1", "Kd": "> 4 mM (inactive)"}, {"smiles": "CC1=C(C(=O)Nc2ccccc2)SCCO1", "Kd": "> 4 mM (inactive)"}, {"smiles": "Cn1c(SCC(N)=O)nc2ccccc2c1=O", "Kd": "> 4 mM (inactive)"}, {"smiles": "COc1cc2c(c(OC)c1OC)-c1ccc(OC)c(=O)cc1[C@@H](NC(C)=O)CC2", "Kd": "> 4 mM (inactive)"}, {"smiles": "Cc1cc(C(=O)N2CCN(c3ncccn3)CC2)cs1", "Kd": "> 4 mM (inactive)"}, {"smiles": "Clc1ncc2[nH]cnc2n1", "Kd": "> 4 mM (inactive)"}, {"smiles": "O=C(NCC1CCNCC1)c1ccccn1", "Kd": "> 4 mM (inactive)"}, {"smiles": "CCNC(=S)N1CCC(C(N)=O)CC1", "Kd": "> 4 mM (inactive)"}, {"smiles": "Cn1ccnc1SCc1cc(=O)[nH]c2ccccc12", "Kd": "> 4 mM (inactive)"}, {"smiles": "CNC(=S)Nc1ccc(OC)cc1C", "Kd": "> 4 mM (inactive)"}, {"smiles": "O=C(CSC1=NCCS1)N1CCc2ccccc21", "Kd": "> 4 mM (inactive)"}, {"smiles": "Cc1cc(O)cc(=O)n1CCCC(=O)O", "Kd": "> 4 mM (inactive)"}, {"smiles": "NC(=O)c1ccccc1NC(=O)c1cccnc1", "Kd": "> 4 mM (inactive)"}, {"smiles": "CC(C)(O)P(C)(=O)c1ccccc1", "note": "(stereo not drawn)", "Kd": "> 4 mM (inactive)"}, {"smiles": "O=C1NC(=O)C(C(=S)Nc2ccccc2)C(=O)N1", "Kd": "> 4 mM (inactive)"}, {"smiles": "CC(C)=CC1C(C(=O)O)C1(C)C", "note": "(stereo not drawn)", "Kd": "> 4 mM (inactive)"}, {"smiles": "O=C(c1ccco1)N1CCCN(C(=O)c2ccco2)CC1", "Kd": "0.072 mM and 0.277 mM"}, {"smiles": "O=C1CSC(=O)N1c1cccc(O)c1", "Kd": "> 4 mM (inactive)"}, {"smiles": "Cc1cc(C(=O)N2CCCCCC2)cs1", "Kd": "> 4 mM (inactive)"}, {"smiles": "S=c1[nH]cnc2sccc12", "Kd": "> 4 mM (inactive)"}, {"smiles": "S=c1nc(C2CC2)[nH]c2ccccc12", "Kd": "> 4 mM (inactive)"}, {"smiles": "CSc1nnc2c(n1)OC(C)=Nc1ccccc1-2", "Kd": "> 4 mM (inactive)"}, {"smiles": "c1cncc(Cn2cccc2)c1", "Kd": "> 4 mM (inactive)"}, {"smiles": "COc1ccc2c(c1)[nH]c1c(C)nccc12", "Kd": "> 4 mM (inactive)"}, {"smiles": "c1ccc(CCNc2ncnc3nc[nH]c23)cc1", "Kd": "> 4 mM (inactive)"}, {"smiles": "O=C(O)C1CC(=O)N(Cc2cccs2)C1", "note": "(stereo not drawn)", "Kd": "> 4 mM (inactive)"}, {"smiles": "COc1cc(O)cc(/C=C/c2ccccc2)c1", "Kd": "> 4 mM (inactive)"}, {"smiles": "COc1cc2nc(-c3cccs3)oc(=O)c2cc1OC", "Kd": "> 4 mM (inactive)"}, {"smiles": "CC(=O)Oc1ccc2c(c1)c(C(C)=O)c(C)n2C", "Kd": "> 4 mM (inactive)"}, {"smiles": "NS(=O)(=O)c1ccc(N=Cc2ccc[nH]2)cc1", "Kd": "> 4 mM (inactive)"}, {"smiles": "OCc1cccc2c1OCO2", "Kd": "> 4 mM (inactive)"}, {"smiles": "Fc1ccc(Cn2c(-c3cscn3)nc3ccccc32)c(Cl)c1", "Kd": "inactive"}, {"smiles": "CCCC(=O)N1CCSCC1", "Kd": "> 4 mM (inactive)"}, {"smiles": "Cn1cnnc1SCC(=O)Nc1nccs1", "Kd": "> 4 mM (inactive)"}, {"smiles": "Cc1cc(C)n(-c2cccc3cccnc23)n1", "Kd": "> 4 mM (inactive)"}, {"smiles": "O=C(CNC(=O)c1ccc(F)cc1)NC1=NCCS1", "Kd": "> 4 mM (inactive)"}, {"smiles": "Cc1nnc(SCC(=O)NC2CCCC2)[nH]c1=O", "Kd": "> 4 mM (inactive)"}, {"smiles": "COc1ccc(NC(=O)CCCC(=O)O)c(OC)c1", "Kd": "> 4 mM (inactive)"}, {"smiles": "CC1CCN(C(=O)c2ccc(NS(C)(=O)=O)cc2)CC1", "Kd": "> 4 mM (inactive)"}, {"smiles": "OCc1ccc2c(c1)CCO2", "Kd": "> 4 mM (inactive)"}, {"smiles": "CN(c1ccccc1C(=O)N1CCOCC1)S(C)(=O)=O", "Kd": "> 4 mM (inactive)"}, {"smiles": "Cc1cc(C)c2nncn2n1", "Kd": "> 4 mM (inactive)"}, {"smiles": "CCOc1ccc(Cl)cc1S(=O)(=O)N1CCCC1", "Kd": "> 4 mM (inactive)"}, {"smiles": "O=c1[nH]c(O)c(C=NC2CC2)c(=O)[nH]1", "Kd": "> 4 mM (inactive)"}, {"smiles": "O=C(O)c1scc2c1CCCC2", "Kd": "> 4 mM (inactive)"}, {"smiles": "CCOC(=O)c1ccc2c(c1)nnn2C", "Kd": "> 4 mM (inactive)"}, {"smiles": "NC(=O)Cn1cnc2c(cnn2-c2ccccc2)c1=O", "Kd": "> 4 mM (inactive)"}, {"smiles": "CCN1CCc2c(sc(N)c2C#N)C1", "Kd": "> 4 mM (inactive)"}, {"smiles": "C[C@@H]1CC[C@@]2(NC1)O[C@H]1C[C@H]3C4CC=C5C[C@@H](O)CC[C@]5(C)C4CC[C@]3(C)C1[C@@H]2C", "note": "(stereo partly drawn)", "Kd": "> 4 mM (inactive)"}, {"smiles": "CCCn1cnn2c(=O)cc(C)nc12", "Kd": "> 4 mM (inactive)"}, {"smiles": "Cc1cc(C(=O)N2CCC3(CC2)OCCO3)cs1", "Kd": "> 4 mM (inactive)"}, {"smiles": "Cc1nnc(SCc2ccon2)n1-c1ccccc1", "Kd": "0.0385 mM"}, {"smiles": "O=c1ccc2ccccc2o1", "Kd": "> 4 mM (inactive)"}, {"smiles": "COCc1cc(=O)oc2cc(O)c(Cl)cc12", "Kd": "> 4 mM (inactive)"}, {"smiles": "O=C(CSc1ncnc2ccccc12)NCCCO", "Kd": "> 4 mM (inactive)"}, {"smiles": "O=C(Nc1nncs1)c1c(F)c(F)c(F)c(F)c1F", "Kd": "> 4 mM (inactive)"}, {"smiles": "O=C1CCCC(=O)N1Cc1ccco1", "Kd": "> 4 mM (inactive)"}, {"smiles": "C(=N\\n1cnnc1)/c1cccs1", "Kd": "> 4 mM (inactive)"}, {"smiles": "Cc1cc(=O)[nH]c(NCC(=O)O)n1", "Kd": "> 4 mM (inactive)"}, {"smiles": "N#Cc1c[nH]n2c(=O)cc(Cc3ccccc3)nc12", "Kd": "> 4 mM (inactive)"}, {"smiles": "Cn1c(SCCC(=O)O)nnc1-c1cccnc1", "Kd": "> 4 mM (inactive)"}, {"smiles": "O=C(O)CNC(=O)c1ccc([N+](=O)[O-])cc1", "Kd": "> 4 mM (inactive)"}, {"smiles": "C[C@@H]1CC[C@@]23CCC4(C)[C@@](C=CC5[C@@]6(C)CC[C@H](O)C(C)(C)C6CC[C@]54C)(OC2=O)C3[C@H]1C", "note": "(stereo partly drawn)", "Kd": "> 4 mM (inactive)"}, {"smiles": "Cc1cc(C)n2nc(C(=O)NCc3ccco3)nc2n1", "Kd": "> 4 mM (inactive)"}, {"smiles": "Cc1ccc2[nH]cc(CCN)c2c1", "Kd": "> 4 mM (inactive)"}, {"smiles": "CC1(O)CC2C(CC1O)C2(C)C", "note": "(stereo not drawn)", "Kd": "> 4 mM (inactive)"}, {"smiles": "CC(C)n1c(Nn2cnnc2)nc2ccccc21", "Kd": "> 4 mM (inactive)"}, {"smiles": "CC(O)c1ccc(C(C)O)cc1", "note": "(stereo not drawn)", "Kd": "> 4 mM (inactive)"}, {"smiles": "CC1=CC(=O)NC2C=CC=CC12", "note": "(stereo not drawn)", "Kd": "> 4 mM (inactive)"}, {"smiles": "O=C1NCC(=O)N2CCc3ccccc3C12", "note": "(stereo not drawn)", "Kd": "> 4 mM (inactive)"}, {"smiles": "O=CN1CCN(C(=O)c2ccccc2F)CC1", "Kd": "> 4 mM (inactive)"}, {"smiles": "Nc1cccc(C(=O)c2ccccc2)c1", "Kd": "> 4 mM (inactive)"}, {"smiles": "O=C1c2ccccc2C(=O)N1OCc1ccccc1", "Kd": "> 4 mM (inactive)"}, {"smiles": "O=c1[nH]nc(Cc2ccncc2)c2ccccc12", "Kd": "> 4 mM (inactive)"}, {"smiles": "Cc1cccc(NC(=O)NC(N)=O)c1", "Kd": "> 4 mM (inactive)"}, {"smiles": "CC(=O)c1sc2nc(N)nn2c1C", "Kd": "> 4 mM (inactive)"}, {"smiles": "Cc1ccc2cccc(SCC(=O)N3CCOCC3)c2n1", "Kd": "inactive"}, {"smiles": "O=C(NCc1ccco1)c1cccc(F)c1", "Kd": "> 4 mM (inactive)"}, {"smiles": "Cc1cc(C(=O)NC2=NCCS2)cs1", "Kd": "> 4 mM (inactive)"}, {"smiles": "CC(C)c1ccc(OCC(=O)N2CCOCC2)cc1", "Kd": "0.394 mM"}, {"smiles": "O=C(Nc1cccnc1)c1ccc(Br)s1", "Kd": "> 4 mM (inactive)"}, {"smiles": "CSc1nnnn1-c1cccc(O)c1", "Kd": "> 4 mM (inactive)"}, {"smiles": "O=C(CSc1ccc(Cl)cc1)N1CCOCC1", "Kd": "0.014 mM and 0.019 mM"}, {"smiles": "O=C(O)C12CC3CC(CC(O)(C3)C1)C2", "Kd": "> 4 mM (inactive)"}, {"smiles": "COC(=O)Cc1csc(N)n1", "Kd": "> 4 mM (inactive)"}, {"smiles": "O=C1c2ccccc2C(=O)c2c1ccc(O)c2O", "Kd": "> 4 mM (inactive)"}, {"smiles": "NCc1cc2ccccc2s1", "Kd": "> 4 mM (inactive)"}, {"smiles": "O=C(Cc1ccc(F)cc1)Nc1ncccn1", "Kd": "> 4 mM (inactive)"}, {"smiles": "O=c1ccc(=O)n(CN2CCc3ccccc3C2)[nH]1", "Kd": "> 4 mM (inactive)"}]}]}
